Experimental data from patent publication US7713994B2 (Wyeth LLC, priority 2005, dated 2010).
pIC50: −log10 of the molar value. Where two headings read alike, the source gives them in different places. Blank lines part the entries; values can stand above or below the molecule they belong to.

Columns and labels:
LoVo = assay: Cytotoxicity assay (SRB), LoVo; format: cell-based; settings: Homo sapiens, LoVo, 72 h, read-out: In Vitro Cellular Activity IC50 LOVO
Experimental: (§1) BT474, HCT-116, LoVo and MCF-7 were maintained under 7% CO2 in RPMI 1640 medium supplemented with 10% fetal bovine serum and 50 µg/ml gentamicin.
(§2) Cells were plated in 96-well microtiter dishes (12000 cells/well for BT474, 4000 cells/well for HCT-116, 6000 cells/well for LoVo and 6000 cells/well for MCF-7) in RPMI 1640 medium containing 5% fetal bovine serum and 50 µg/ml gentamicin. The cells were allowed to incubate overnight at 37° C., 7% CO2. Compound dilutions were prepared using the same medium. HCT-116, LoVo and MCF-7 cells were cultured for three days and BT474 cells were cultured for 6 days, in the presence of each compound dilution. Untreated cells were included as controls. The percentage of surviving cells was determined using a protein binding dye (sulforhodamineB, SRB) assay. Cellular protein was precipitated in each well by the addition of 0.05 ml of 50% cold trichloroacetic acid (TCA). After 1 hour, the plates were washed extensively in dH2O and dried. The sulforhodamineB dye solution (0.08 mL of 0.4% SRB in 1% acetic acid) was added to each well, kept at room temperature for ten minutes, then washed in 1% acetic acid and dried. The dye was dissolved in 10 mM Tris-HCl (150 uL) and the absorbency read at 540 nm.

MCF-7 = assay: Cytotoxicity assay (SRB), MCF-7; format: cell-based; settings: Homo sapiens, MCF7, 72 h, read-out: In Vitro Cellular Activity IC50 MCF-7
Experimental: as §1, §2

BT474 = assay: Cytotoxicity assay (SRB), BT474; format: cell-based; settings: Homo sapiens, BT-474, 144 h, read-out: In Vitro Cellular Activity IC50 BT474
Experimental: as §1, §2

HCT-116 = assay: Cytotoxicity assay (SRB), HCT-116; format: cell-based; settings: Homo sapiens, HCT-116, 72 h, read-out: In Vitro Cellular Activity IC50 HCT116
Experimental: as §1, §2

cyclin D1/cdk 4 enzyme = target: T1, cyclin D1/cdk 4 enzyme (Homo sapiens, UniProt P11802); assay: CDK4 ELISA kinase assay (phospho-Rb ser 795 detection); format: biochemical; settings: In Vitro Enzyme Assay, cyclin D1/cdk 4, read-out: CDK4 IC50
T1 construct: made in house; host or cells: Sf9 insect cells, recombinant baculovirus
Procedure, shortened: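 Screening was done at 10 ug/ml compound. Each partially purified cyclin/CDK complex, produced in baculovirus-infected Sf9 cells, phosphorylated a coated GST-Rb C-terminal fragment with 200 μM ATP, and Ser795 phosphorylation was quantified by HRP-ELISA at 450 nm.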

T1 sequence (P11802 whole entry, species assumed): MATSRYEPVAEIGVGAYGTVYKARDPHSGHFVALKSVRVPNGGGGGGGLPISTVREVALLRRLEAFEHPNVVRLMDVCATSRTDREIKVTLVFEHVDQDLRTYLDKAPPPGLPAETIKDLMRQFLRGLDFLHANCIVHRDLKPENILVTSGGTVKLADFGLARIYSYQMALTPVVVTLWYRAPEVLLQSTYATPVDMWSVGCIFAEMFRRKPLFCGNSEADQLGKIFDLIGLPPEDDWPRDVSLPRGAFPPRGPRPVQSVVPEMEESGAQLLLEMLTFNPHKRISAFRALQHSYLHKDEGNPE
T1 sequence (P24385 whole entry partner, species assumed): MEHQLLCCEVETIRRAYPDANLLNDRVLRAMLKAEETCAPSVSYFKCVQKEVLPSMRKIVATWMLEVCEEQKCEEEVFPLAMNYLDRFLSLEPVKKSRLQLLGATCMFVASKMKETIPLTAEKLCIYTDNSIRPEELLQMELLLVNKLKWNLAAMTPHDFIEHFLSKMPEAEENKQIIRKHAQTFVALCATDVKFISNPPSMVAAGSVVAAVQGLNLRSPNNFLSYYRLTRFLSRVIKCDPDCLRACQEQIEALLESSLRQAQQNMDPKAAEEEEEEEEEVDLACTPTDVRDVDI

Compound: COC(=O)Oc1cc(CN/C=C2\C(=O)NC(=O)c3ccc(Br)cc32)ccc1OC [compound 83, 5-({[(Z)-(6-Bromo-1,3-dioxo-2,3-dihydroisoquinolin-4(1H)-ylidene)methyl]amino}methyl)-2-methoxyphenyl methyl carbonate]
- pIC50 (LoVo; LoVo cells, SRB, three days): 5.59
- pIC50 (MCF-7; MCF-7 cells, SRB, three days): 4.52
- pIC50 (BT474; BT474 cells, SRB, 6 days): 5.49
- pIC50 (HCT-116; HCT116 cells, SRB, three days): 5.35

Compound: CCOP(=O)(OCC)c1ccc2c(c1)/C(=C/Nc1ccc(N3CCN(C)CC3)cc1)C(=O)NC2=O [Example 284, Diethyl [(4Z)-4-({[4-(4-methylpiperazin-1-yl)phenyl]amino}methylene)-1,3-dioxo-1,2,3,4-tetrahydroisoquinolin-6-yl]phosphonate]
- pIC50 (LoVo): 4.60
- pIC50 (MCF-7): 4.92
- pIC50 (BT474): < 4.30
- pIC50 (HCT-116): 4.70

Compound: O=C1NC(=O)c2ccc(Br)cc2/C1=C/NCc1ccc(NC(=O)C(Cl)Cl)cc1 [Example 302, N-[4-({[(Z)-(6-Bromo-1,3-dioxo-2,3-dihydroisoquinolin-4(1H)-ylidene)methyl]amino}methyl)phenyl]-2,2-dichloroacetamide]
- pIC50 (LoVo; LoVo cells, SRB, three days): 6.23
- pIC50 (MCF-7; MCF-7 cells, SRB, three days): 5.92
- pIC50 (BT474; BT474 cells, SRB, 6 days): 6.25
- pIC50 (HCT-116; HCT116 cells, SRB, three days): 6.26

Compound: O=C1NCc2ccccc2C1=CNc1ccc(N2CCCCC2)cc1 [Example 860, 4-[(4-Piperidin-1-yl-phenylamino)-methylene]-1,4-dihydro-2H-isoquinolin-3-one]
- pIC50 (LoVo; LoVo cells, 3 days, SRB): 4.44
- pIC50 (MCF-7; MCF-7 cells, 3 days, SRB): 4.40
- pIC50 (BT474; BT474 cells, 6 days, SRB): 4.45
- pIC50 (HCT-116; HCT116 cells, 3 days, SRB): 4.48

Compound: COc1ccc(CN/C=C2\C(=O)NC(=O)c3ccc(Br)cc32)cc1F [Example 181, (4Z)-6-Bromo-4-{[(3-fluoro-4-methoxybenzyl)amino]methylene}isoquinoline-1,3(2H,4H)-dione]
- pIC50 (LoVo; LoVo cells, SRB, three days): < 4.30
- pIC50 (MCF-7; MCF-7 cells, SRB, three days): < 4.30
- pIC50 (BT474; BT474 cells, SRB, 6 days): < 4.30
- pIC50 (HCT-116; HCT116 cells, SRB, three days): 4.80

Compound: CC(C)(C)OC(=O)N1CCN(c2ccc(N/C=C3\C(=O)NC(=O)c4ccc(Br)cc43)cc2)CC1 [Example 294, tert-Butyl 4-(4-{[(Z)-(6-bromo-1,3-dioxo-2,3-dihydroisoquinolin-4(1H)-ylidene)methyl]amino}phenyl)piperazine-1-carboxylate]
- pIC50 (LoVo; LoVo cells, SRB, three days): < 4.30
- pIC50 (MCF-7; MCF-7 cells, SRB, three days): 4.62
- pIC50 (BT474; BT474 cells, SRB, 6 days): 4.31
- pIC50 (HCT-116; HCT116 cells, SRB, three days): 5.05

Compound: O=C1NC(=O)c2ccc(I)cc2/C1=C/NCc1ccc(-c2ccccn2)c(O)c1 [Example 509, 4-[(3-Hydroxy-4-pyridin-2-yl-benzylamino)-methylene]-6-iodo-4H-isoquinoline-1,3-dione]
- pIC50 (LoVo; LoVo cells, 3 days, SRB): 6.72
- pIC50 (MCF-7; MCF-7 cells, 3 days, SRB): 6.27
- pIC50 (BT474; BT474 cells, 6 days, SRB): 6.89
- pIC50 (HCT-116; HCT116 cells, 3 days, SRB): 6.60

Compound: O=C1NC(=O)c2ccc(I)cc2/C1=C/Nc1ccc(C2=NCCC2)cc1 [Example 403, 4-{[4-(4,5-Dihydro-3H-pyrrol-2-yl)-phenylamino]-methylene}-6-iodo-4H-isoquinoline-1,3-dione]
- pIC50 (LoVo; LoVo cells, 3 days, SRB): < 4.30
- pIC50 (MCF-7; MCF-7 cells, 3 days, SRB): < 4.30
- pIC50 (BT474; BT474 cells, 6 days, SRB): 4.40
- pIC50 (HCT-116; HCT116 cells, 3 days, SRB): 4.38

Compound: O=C1NC(=O)c2ccc(I)cc2/C1=C/NCc1ccc(-c2ccncc2)c(O)c1 [Example 511, 4-[(3-Hydroxy-4-pyridin-4-yl-benzylamino)-methylene]-6-iodo-4H-isoquinoline-1,3-dione]
- pIC50 (LoVo; LoVo cells, 3 days, SRB): 5.60
- pIC50 (MCF-7; MCF-7 cells, 3 days, SRB): 5.82
- pIC50 (BT474; BT474 cells, 6 days, SRB): 5.60
- pIC50 (HCT-116; HCT116 cells, 3 days, SRB): 5.64

Compound: CN(CCN1CCOCC1)c1ccc(NC=C2C(=O)NC(=O)c3ccc(Br)cc32)cc1 (stereo in doubt) [Example 871, (4Z)-6-Bromo-4-[({4-[methyl(2-morpholin-4-ylethyl)amino]phenyl}amino)methylene]isoquinoline-1,3(2H,4H)-dione]
- pIC50 (LoVo; LoVo cells, 3 days, SRB): 4.33
- pIC50 (MCF-7; MCF-7 cells, 3 days, SRB): 4.54
- pIC50 (BT474; BT474 cells, 6 days, SRB): < 4.30
- pIC50 (HCT-116; HCT116 cells, 3 days, SRB): 4.86

Compound: O=C1NC(=O)c2ccc(Br)cc2/C1=C/NCc1ccc(OCCOCc2ccccc2)c(O)c1 [Example 159]
- pIC50 (LoVo; LoVo cells, SRB, three days): 4.74
- pIC50 (MCF-7; MCF-7 cells, SRB, three days): < 4.30
- pIC50 (BT474; BT474 cells, SRB, 6 days): 4.60
- pIC50 (HCT-116; HCT116 cells, SRB, three days): 4.80

Compound: Cc1ccc2c(c1)CNC(=O)C2=CNc1ccc(N2CCOCC2)cc1 [Example 858, 7-Methyl-4-[(4-morpholin-4-yl-phenylamino)-methylene]-1,4-dihydro-2H-isoquinolin-3-one]
- pIC50 (LoVo; LoVo cells, 3 days, SRB): 4.41
- pIC50 (MCF-7; MCF-7 cells, 3 days, SRB): 4.46
- pIC50 (BT474; BT474 cells, 6 days, SRB): 4.46
- pIC50 (HCT-116; HCT116 cells, 3 days, SRB): 4.42

Compound: CC(C)(C)OC(=O)N1CCN(c2ccc(N/C=C3\C(=O)NC(=O)c4ccc(I)cc43)cc2)CC1 [Example 377, tert-Butyl 4-(4-{[(Z)-(6-iodo-1,3-dioxo-2,3-dihydroisoquinolin-4(1H)-ylidene)methyl]amino}phenyl)piperazine-1-carboxylate]
- pIC50 (LoVo; LoVo cells, SRB, three days): < 4.30
- pIC50 (MCF-7; MCF-7 cells, SRB, three days): < 4.30
- pIC50 (BT474; BT474 cells, SRB, 6 days): < 4.30
- pIC50 (HCT-116; HCT116 cells, SRB, three days): 4.96

- pIC50 (cyclin D1/cdk 4 enzyme): 4.51
Compound: NS(=O)(=O)c1ccc(CNC=C2C(=O)NC(=O)c3ccc(-c4ccc(-c5ccccc5)cc4)cc32)cc1 [Example 757, 4-{[(6-Biphenyl-4-yl-1,3-dioxo-2,3-dihydro-1H-isoquinolin-4-ylidenemethyl)-amino]-methyl}-benzenesulfonamide]

- pIC50 (cyclin D1/cdk 4 enzyme): 4.64
Compound: CC(C)N1CCN(c2ccc(NC=C3C(=O)NC(=O)c4ccccc43)cc2)CC1 [Example 600, 4-{[4-(4-Isopropyl-piperazin-1-yl)-phenylamino]-methylene}-4H-isoquinoline-1,3-dione]

- pIC50 (cyclin D1/cdk 4 enzyme): 4.58
Compound: CN1CCN(c2ccc(NC=C3C(=O)NC(=O)c4ccc(C=Cc5ccc([N+](=O)[O-])cc5)cc43)cc2)CC1 [Example 829, 4-{[4-(4-Methyl-piperazin-1-yl)-phenylamino]-methylene}-6-[2-(4-nitro-phenyl)-vinyl]-4H-isoquinoline-1,3-dione]

- pIC50 (cyclin D1/cdk 4 enzyme): 8.00
Compound: COc1ccc(CNC=C2C(=O)NC(=O)c3ccc(C=Cn4ccnc4)cc32)cc1O [Example 733, 4-[(3-Hydroxy-4-methoxy-benzylamino)-methylene]-6-(2-imidazol-1-yl-vinyl)-4H-isoquinoline-1,3-dione]

- pIC50 (cyclin D1/cdk 4 enzyme): 5.19
Compound: CN1CCN(c2ccc(NC=C3C(=O)NC(=O)c4ccc(-c5cccc(C(=O)O)c5)cc43)cc2)CC1 [Example 686, 3-(4-{[4-(4-Methyl-piperazin-1-yl)-phenylamino]-methylene}-1,3-dioxo-1,2,3,4-tetrahydro-isoquinolin-6-yl)-benzoic acid]

- pIC50 (cyclin D1/cdk 4 enzyme): 4.84
Compound: CC(=O)c1cccc(-c2ccc3c(c2)C(=CNCc2ccc(S(N)(=O)=O)cc2)C(=O)NC3=O)c1 [Example 747, 4-({[6-(3-Acetyl-phenyl)-1,3-dioxo-2,3-dihydro-1H-isoquinolin-4-ylidenemethyl]-amino}-methyl)-benzenesulfonamide]

- pIC50 (cyclin D1/cdk 4 enzyme): 4.36
Compound: O=C1NC(=O)c2ccccc2C1=CNCc1cccc(NC(=O)C2CCC2)c1 [Example 587, Cyclobutanecarboxylic acid (3-{[(1,3-dioxo-2,3-dihydro-1H-isoquinolin-4-ylidenemethyl)-amino]-methyl}-phenyl)-amide]

- pIC50 (cyclin D1/cdk 4 enzyme): 4.70
Compound: N#CCc1ccc(NC=C2C(=O)NC(=O)c3ccc(C=Cc4ccncc4)cc32)cc1 [Example 649, (4-{[1,3-Dioxo-6-(2-pyridin-4-yl-vinyl)-2,3-dihydro-1H-isoquinolin-4-ylidenemethyl]-amino}-phenyl)-acetonitrile]

- pIC50 (cyclin D1/cdk 4 enzyme): 6.30
Compound: CC(=O)c1ccc(-c2ccc3c(c2)C(=CNCc2ccc(S(N)(=O)=O)cc2)C(=O)NC3=O)cc1 [Example 746, 4-({[6-(4-Acetyl-phenyl)-1,3-dioxo-2,3-dihydro-1H-isoquinolin-4-ylidenemethyl]-amino}-methyl)-benzenesulfonamide]

- pIC50 (cyclin D1/cdk 4 enzyme): 4.86
Compound: NS(=O)(=O)c1ccc(CNC=C2C(=O)NC(=O)c3ccc(-c4cccc(C(=O)O)c4)cc32)cc1 [Example 742, 3-{1,3-Dioxo-4-[(4-sulfamoyl-benzylamino)-methylene]-1,2,3,4-tetrahydro-isoquinolin-6-yl}-benzoic acid]
